molecular target: T1, PD-1/PD-L1 (Homo sapiens, UniProt Q9NZQ7); assay: PD-1/PD-L1 Homogenous Time-Resolved Fluorescence (HTRF) binding assay; settings: PD-L1-His 10 nM, PD-1-Ig 20 nM; numeric IC50; read-out: Range or IC50
T1 construct: made in house; host or cells: HEK293T
Procedure, shortened: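 Binding measured in dPBS with 0.1% BSA and 0.05% Tween-20, detected by HTRF with europium cryptate anti-Ig (1 nM final) and APC anti-His (20 nM final) added over the binding reaction. Counter-assays used human PD-1-Ig/PD-L2-His (20 and 5 nM) and CD80-His/PD-L1-Ig (100 and 10 nM).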

T1 sequence (Q9NZQ7 with tags, fused parts or gaps): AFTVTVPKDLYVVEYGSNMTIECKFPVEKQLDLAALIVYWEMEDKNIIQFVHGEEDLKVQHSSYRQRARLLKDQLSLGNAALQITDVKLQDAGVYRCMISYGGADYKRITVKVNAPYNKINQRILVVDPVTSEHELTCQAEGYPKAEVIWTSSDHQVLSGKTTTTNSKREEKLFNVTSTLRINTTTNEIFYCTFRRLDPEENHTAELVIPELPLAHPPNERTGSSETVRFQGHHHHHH

| IC50 | Compound |
| --- | --- |
| 0.012 µM | Cc1c(COc2cc(OCc3cncc(C#N)c3)c(C=O)cc2Cl)cccc1-c1cccc(OCCCN2CC[C@@H](O)C2)c1Cl [Example 1509, (R)-5-((4-chloro-5-((2′-chloro-3′-(3-(3-hydroxypyrrolidin-1-yl)propoxy)-2-methyl-[1,1′-biphenyl]-3-yl)methoxy)-2-formylphenoxy)methyl)nicotinonitrile] |

same assay, conditions: PD-L1-His 10 nM, PD-1-Ig 20 nM; value given as range class; read-out: Range or IC50

| Compound | IC50 |
| --- | --- |
| CNC(=O)c1cccc(-c2cccc(COc3cc(OCc4cc(F)cc(F)c4)c(CN4C[C@@H](O)C[C@H]4C(=O)O)cc3Cl)c2C)c1C [Example 4026, (2S,4S)-1-(5-chloro-2-((3,5-difluorobenzyl)oxy)-4-((2,2′-dimethyl-3′-(methylcarbamoyl)-[1,1′-biphenyl]-3-yl)methoxy)benzyl)-4-hydroxypyrrolidine-2-carboxylic Acid] | 0.1 to 2 µM |
| Cc1c(COc2cc(OCc3cncc(C#N)c3)c(CN(C)[C@@](C)(CO)C(=O)O)c(C)c2Cl)cccc1-c1cccc(OCCCN2CC[C@@H](O)C2)c1C [Example 4100, (S)-2-((3-chloro-6-((5-cyanopyridin-3-yl)methoxy)-4-((3′-(3-((R)-3-hydroxypyrrolidin-1-yl)propoxy)-2,2′-dimethyl-[1,1′-biphenyl]-3-yl)methoxy)-2-methylbenzyl)(methyl)amino)-3-hydroxy-2-methylpropanoic Acid] | 0.00021 to 0.01 µM |
| Cc1c(COc2cc(OCc3cncc(C#N)c3)c(CN[C@@](C)(CO)C(=O)O)cc2Cl)cccc1-c1ccc2c(c1C)OCCO2 [Example 3041, (2S)-2-((5-chloro-2-((5-cyanopyridin-3-yl)methoxy)-4-((2-methyl-3-(5-methyl-2,3-dihydrobenzo[b][1,4]dioxin-6-yl)benzyl)oxy)benzyl)amino)-3-hydroxy-2-methylpropanoic Acid] | 0.00021 to 0.01 µM |
| Cc1ccc(OCCCN2CC[C@@H](O)C2)c(C)c1-c1cccc(COc2cc(OCc3cncc(C#N)c3)c(CN[C@@H](CO)C(=O)O)cc2Cl)c1C [Example 3031, (2S)-2-((5-chloro-2-((5-cyanopyridin-3-yl)methoxy)-4-((3′-(3-((R)-3-hydroxypyrrolidin-1-yl)propoxy)-2,2′,6′-trimethyl-[1,1′-biphenyl]-3-yl)methoxy)benzyl)amino)-3-hydroxypropanoic Acid] | 0.00021 to 0.01 µM |
| Cc1c(COc2cc(OCc3cncc(C#N)c3)c(CN[C@](C)(CO)C(=O)O)cc2Cl)cccc1-c1cccc(OCCCN2[C@@H]3CC[C@H]2C[C@@H](O)C3)c1 [Example 3019, (R)-2-((5-chloro-2-((5-cyanopyridin-3-yl)methoxy)-4-((3′-(3-((1R,3R,5S)-3-hydroxy-8-azabicyclo[3.2.1]octan-8-yl)propoxy)-2-methyl-[1,1′-biphenyl]-3-yl)methoxy)benzyl)amino)-3-hydroxy-2-methylpropanoic Acid] | 0.00021 to 0.01 µM |
| Cc1c(COc2cc(OCc3cncc(C#N)c3)c(CNCCCN(C)C)cc2Cl)cccc1-c1cccc(OCCCN2CCC(O)C2)c1C (stereo in doubt) [Example 3007, (R)-5-((4-chloro-2-(((3-(dimethylamino)propyl)amino)methyl)-5-((3′-(3-(3-hydroxypyrrolidin-1-yl)propoxy)-2,2′-dimethyl-[1,1′-biphenyl]-3-yl)methoxy)phenoxy)methyl)nicotinonitrile] | 0.00021 to 0.01 µM |
| Cc1c(COc2cc(OCc3cncc(C#N)c3)c(CNC[C@H](O)CO)cc2Cl)cccc1-c1cccc(OCCCN2CC(N(C)C)C2)c1Cl [Example 2028, (S)-5-((4-chloro-5-((2′-chloro-3′-(3-(3-(dimethylamino)azetidin-1-yl)propoxy)-2-methyl-[1,1′-biphenyl]-3-yl)methoxy)-2-(((2,3-dihydroxypropyl)amino)methyl)phenoxy)methyl)nicotinonitrile] | 0.00021 to 0.01 µM |
| CCNC(=O)c1cccc(-c2cccc(COc3cc(OCc4cncc(C#N)c4)c(CN4C[C@H](O)C[C@H]4C(=O)O)cc3Cl)c2C)c1C [Example 4008, (2S,4R)-1-(5-chloro-2-((5-cyanopyridin-3-yl)methoxy)-4-((3′-(ethylcarbamoyl)-2,2′-dimethyl-[1,1′-biphenyl]-3-yl)methoxy)benzyl)-4-hydroxypyrrolidine-2-carboxylic Acid] | 0.01 to 0.1 µM |
| Cc1c(COc2cc(OCc3cncc(C#N)c3)c(CN[C@](C)(CO)C(=O)O)cc2Cl)cccc1-c1cccc(OCCCN2CCCC(CO)C2)c1Cl (stereo partly drawn) [Example 2043, (2R)-2-((5-chloro-4-((2′-chloro-3′-(3-(3-(hydroxymethyl)piperidin-1-yl)propoxy)-2-methyl-[1,1′-biphenyl]-3-yl)methoxy)-2-((5-cyanopyridin-3-yl)methoxy)benzyl)amino)-3-hydroxy-2-methylpropanoic Acid] | 0.00021 to 0.01 µM |
| Cc1c(COc2cc(OCc3cncc(C#N)c3)c(CN(CCO)CCO)c(C)c2Cl)cccc1-c1cccc(OCCCN2CC[C@@H](O)C2)c1C [Example 4105, (R)-5-((2-((bis(2-hydroxyethyl)amino)methyl)-4-chloro-5-((3′-(3-(3-hydroxypyrrolidin-1-yl)propoxy)-2,2′-dimethyl-[1,1′-biphenyl]-3-yl)methoxy)-3-methylphenoxy)methyl)nicotinonitrile] | 0.00021 to 0.01 µM |

Next, values leading:

| IC50 | Compound |
| --- | --- |
| 0.00021 to 0.01 µM | Cc1c(COc2cc(OCc3cncc(C#N)c3)c(CN[C@@](C)(CO)C(=O)O)cc2Cl)cccc1-c1cccc(OCCCN2CCC(O)C2)c1C (stereo in doubt) [Example 3003, (S)-2-((5-chloro-2-((5-cyanopyridin-3-yl)methoxy)-4-((3′-(3-((R)-3-hydroxypyrrolidin-1-yl)propoxy)-2,2′-dimethyl-[1,1′-biphenyl]-3-yl)methoxy)benzyl)amino)-3-hydroxy-2-methylpropanoic Acid] |
| 0.01 to 0.1 µM | Cc1c(COc2cc(OCc3cncc(C#N)c3)c(CN3CCCC[C@H]3C(=O)O)cc2Cl)cccc1-c1cccc(C(=O)NCCN2CCCC2)c1C [Example 4002, (S)-1-(5-chloro-2-((5-cyanopyridin-3-yl)methoxy)-4-((2,2′-dimethyl-3′-((2-(pyrrolidin-1-yl)ethyl)carbamoyl)-[1,1′-biphenyl]-3-yl)methoxy)benzyl)piperidine-2-carboxylic Acid] |
| 2.01 to 10 µM | Cc1cccc(C)c1COc1cc(OCc2cccc(-c3cccc(OCCCN4CC[C@@H](O)C4)c3C)c2C)c(Cl)cc1CN1CCCC[C@H]1C(=O)O [Example 4516, (S)-1-(5-chloro-2-((2,6-dimethylbenzyl)oxy)-4-((3′-(3-((R)-3-hydroxypyrrolidin-1-yl)propoxy)-2,2′-dimethyl-[1,1′-biphenyl]-3-yl)methoxy)benzyl)piperidine-2-carboxylic Acid] |
| 0.00021 to 0.01 µM | Cc1c(COc2cc(OCc3cncc(C(N)=O)c3)c(CN3CCCC[C@H]3C(=O)O)cc2Cl)cccc1-c1cccc(OCCCN2CCC(CO)(C(=O)O)C2)c1Cl (stereo partly drawn) [Example 1107, (2S)-1-(2-((5-carbamoylpyridin-3-yl)methoxy)-4-((3′-(3-(3-carboxy-3-(hydroxymethyl)pyrrolidin-1-yl)propoxy)-2′-chloro-2-methyl-[1,1′-biphenyl]-3-yl)methoxy)-5-chlorobenzyl)piperidine-2-carboxylic Acid] |
| 0.00021 to 0.01 µM | Cc1c(COc2cc(OCc3cncc(C#N)c3)c(C(C)N3C[C@H](O)C[C@H]3C(=O)O)cc2Cl)cccc1-c1cccc(OCCCN2CC[C@@H](O)C2)c1C (stereo partly drawn) [Example 4138, (2S,4R)-1-(1-(5-chloro-2-((5-cyanopyridin-3-yl)methoxy)-4-((3′-(3-((R)-3-hydroxypyrrolidin-1-yl)propoxy)-2,2′-dimethyl-[1,1′-biphenyl]-3-yl)methoxy)phenyl)ethyl)-4-hydroxypyrrolidine-2-carboxylic Acid] |
| 0.00021 to 0.01 µM | Cc1ccc(COc2cc(OCc3cccc(-c4cccc(OCCCN5CC[C@@H](O)C5)c4C)c3C)c(Cl)cc2CNC(CO)(CO)CO)cc1C [Example 4507, (R)-2-((5-chloro-2-((3,4-dimethylbenzyl)oxy)-4-((3′-(3-(3-hydroxypyrrolidin-1-yl)propoxy)-2,2′-dimethyl-[1,1′-biphenyl]-3-yl)methoxy)benzyl)amino)-2-(hydroxymethyl)propane-1,3-diol] |
| 0.00021 to 0.01 µM | Cc1c(COc2cc(OCc3cncc(C#N)c3)c(CN3CCCC[C@H]3C(=O)O)cc2Cl)cccc1-c1cccc(OCCCN2CCOCC2)c1C [Example 2212, (2S)-1-(5-chloro-2-((5-cyanopyridin-3-yl)methoxy)-4-((2,2′-dimethyl-3′-(3-morpholinopropoxy)biphenyl-3-yl)methoxy)benzyl)piperidine-2-carboxylic Acid] |
| 0.00021 to 0.01 µM | Cc1c(COc2cc(OCc3cncc(C#N)c3)c(CN3CCCC[C@H]3C(=O)O)cc2Cl)cccc1-c1cccc(OCCCN2CC3CC2CO3)c1C (stereo partly drawn) [Example 2249, (2S)-1-(4-((3′-(3-(2-oxa-5-azabicyclo[2.2.1]heptan-5-yl)propoxy)-2,2′-dimethylbiphenyl-3-yl)methoxy)-5-chloro-2-((5-cyanopyridin-3-yl)methoxy)benzyl)piperidine-2-carboxylic Acid] |
| 0.00021 to 0.01 µM | Cc1c(COc2cc(OCc3cncc(C#N)c3)c(CNCC(=O)O)cc2Cl)cccc1-c1cccc(OCCCN2CC[C@@H](O)C2)c1C [Example 4147, (R)-(5-chloro-2-((5-cyanopyridin-3-yl)methoxy)-4-((3′-(3-(3-hydroxypyrrolidin-1-yl)propoxy)-2,2′-dimethyl-[1,1′-biphenyl]-3-yl)methoxy)benzyl)glycine] |
| 0.00021 to 0.01 µM | Cc1ccc(OCCCN2CC[C@@H](O)C2)c(C)c1-c1cccc(COc2cc(OCc3cncc(C#N)c3)c(CN3CCCC[C@H]3C(=O)O)cc2Cl)c1C [Example 3030, (2S)-1-(5-chloro-2-((5-cyanopyridin-3-yl)methoxy)-4-((3′-(3-((R)-3-hydroxypyrrolidin-1-yl)propoxy)-2,2′,6′-trimethyl-[1,1′-biphenyl]-3-yl)methoxy)benzyl)piperidine-2-carboxylic Acid] |
